Results on 15 molecules are retold here after paper PMC10054477, “Design, Synthesis, and Biological Evaluation of Sulfonamide Methoxypyridine Derivatives as Novel PI3K/mTOR Dual Inhibitors” (Pharmaceuticals, 2023).

The target of one test is T1, PI3Kα (Homo sapiens, UniProt P42336).
T1 construct: purchased SignalChem P27-122DH
The experiment in a line: ADP-Glo kinase assay, PI3Kα enzyme inhibition. It counts as biochemical. Conditions: for inhibition at 0.001 µM: at 1 nM; for IC50: mean (n = 2). On the procedure:
The enzymatic inhibitory assays of all target compounds against PI3Kα were performed with the ADP-Glo assay (Promega, Madison, WI, USA, catalog No. V9102/3). Briefly, compounds were continuously diluted to a certain concentration. […] The mixture was added to a 96-well plate and incubated in a dark place at ambient temperature for 40 min. Then, the kinase reaction was stopped by adding of ADP-Glo reagent and the plate was incubated again at ambient temperature for another 40 min. The kinase detection reagent was added and the signal was collected via PerkinElmer Envision plate reader (PE, Boston, MA, USA).

In another test the test system is MCF-7 cells. The experiment in a line: CCK-8 cell viability assay, MCF-7. It counts as cell-based. The settings on record: Homo sapiens, MCF7, 72 h, mean (n = 3). On the procedure: (§1) MCF-7 and HCT-116 cells were purchased from the Meilunbio Biotechnology Co., Ltd. (Dalian, China). Cells were cultured at 37 °C with 5% CO2, using DMEM or RPMI 1640 medium (Meilunbio, Dalian, China) with 10% (v/v) fetal bovine serum (Gibco, San Diego, CA, USA) and 1% (v/v) penicillin and streptomycin (Meilunbio, Dalian, China). CCK-8 assay was used to determine the inhibitory effect in vitro. In short, cells were incubated into 96-well plates at the rate of 5000 cells per well. After 24 h of incubation, 100 μL medium was added, which contained a specific concentration of the test compound. After 72 h, 10 μL CCK-8 regent was added and the plate was incubated at 37 °C, 5% CO2 for 1 h. The optical density of each hole at 450 nm was read by a BioTek TS-800 microplate reader. GraphPad Prism 9.3.1 software was used to calculate the IC50 value.

For the next test, the system named is HCT-116 cells. The experiment in a line: CCK-8 cell viability assay, HCT-116. The format is cell-based. Conditions: Homo sapiens, mean (n = 3). On the procedure: as §1
Background: Tetrazolium assays rely on reduction of a dye to a coloured formazan, in cell work by metabolically active cells.

T1 sequence (P42336 whole entry): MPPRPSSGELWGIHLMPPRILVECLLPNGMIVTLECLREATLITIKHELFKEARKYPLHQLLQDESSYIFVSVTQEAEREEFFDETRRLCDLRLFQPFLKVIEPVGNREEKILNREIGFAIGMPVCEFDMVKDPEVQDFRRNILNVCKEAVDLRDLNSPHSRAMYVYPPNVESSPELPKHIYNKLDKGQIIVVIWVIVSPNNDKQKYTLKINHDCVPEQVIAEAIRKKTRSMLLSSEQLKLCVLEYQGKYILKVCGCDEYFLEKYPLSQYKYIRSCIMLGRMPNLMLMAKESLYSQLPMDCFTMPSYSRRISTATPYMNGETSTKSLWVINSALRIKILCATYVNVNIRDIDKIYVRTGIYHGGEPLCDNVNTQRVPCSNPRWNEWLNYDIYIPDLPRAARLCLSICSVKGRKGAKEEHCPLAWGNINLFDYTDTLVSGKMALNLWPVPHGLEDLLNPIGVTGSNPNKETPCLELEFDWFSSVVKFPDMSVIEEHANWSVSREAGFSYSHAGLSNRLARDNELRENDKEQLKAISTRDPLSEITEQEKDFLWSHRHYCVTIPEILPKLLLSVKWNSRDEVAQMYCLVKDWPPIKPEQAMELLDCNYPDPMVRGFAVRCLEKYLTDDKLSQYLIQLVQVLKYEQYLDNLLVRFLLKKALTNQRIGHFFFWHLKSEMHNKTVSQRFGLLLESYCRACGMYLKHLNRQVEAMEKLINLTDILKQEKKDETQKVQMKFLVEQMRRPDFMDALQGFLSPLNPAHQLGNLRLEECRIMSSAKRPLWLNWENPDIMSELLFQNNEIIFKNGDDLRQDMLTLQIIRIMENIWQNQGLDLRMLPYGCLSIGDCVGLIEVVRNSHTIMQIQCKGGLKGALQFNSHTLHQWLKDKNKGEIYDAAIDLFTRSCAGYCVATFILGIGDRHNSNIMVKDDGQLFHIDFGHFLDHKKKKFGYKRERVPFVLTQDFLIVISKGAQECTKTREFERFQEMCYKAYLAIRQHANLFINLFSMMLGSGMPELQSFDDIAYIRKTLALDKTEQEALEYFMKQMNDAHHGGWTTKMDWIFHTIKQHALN
T1 sequence (P27986 whole entry partner): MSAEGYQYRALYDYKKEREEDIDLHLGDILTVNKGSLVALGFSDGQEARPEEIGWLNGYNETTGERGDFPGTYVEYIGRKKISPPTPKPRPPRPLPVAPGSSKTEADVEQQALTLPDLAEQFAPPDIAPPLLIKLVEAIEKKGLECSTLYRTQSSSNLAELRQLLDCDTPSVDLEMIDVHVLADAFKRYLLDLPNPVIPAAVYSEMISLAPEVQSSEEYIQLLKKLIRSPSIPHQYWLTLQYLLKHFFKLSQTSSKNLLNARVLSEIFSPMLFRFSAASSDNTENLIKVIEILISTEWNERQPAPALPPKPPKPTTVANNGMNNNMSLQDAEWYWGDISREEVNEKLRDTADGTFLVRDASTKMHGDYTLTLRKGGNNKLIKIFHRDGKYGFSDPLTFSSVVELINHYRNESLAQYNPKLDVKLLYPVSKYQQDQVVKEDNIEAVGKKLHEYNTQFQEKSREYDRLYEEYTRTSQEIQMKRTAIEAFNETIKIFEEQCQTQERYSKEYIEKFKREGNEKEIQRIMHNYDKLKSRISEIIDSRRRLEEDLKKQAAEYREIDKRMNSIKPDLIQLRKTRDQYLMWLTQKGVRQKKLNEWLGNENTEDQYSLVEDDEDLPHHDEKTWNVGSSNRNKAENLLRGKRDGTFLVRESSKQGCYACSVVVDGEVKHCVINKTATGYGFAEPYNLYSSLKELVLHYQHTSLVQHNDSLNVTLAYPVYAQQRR

As usually defined, the inhibition is the relative decrease from the control value, in per cent. As usually defined, the IC50 is the concentration that gives 50% inhibition. A high value points to a need for much substance. On to `CNC(=O)c1cnc(-c2ccnc3ccc(-c4cnc(OC)c(NS(=O)(=O)c5ccc(F)cc5F)c4)cc23)o1` [22b, 2-(6-(5-((2,4-difluorophenyl)sulfonamido)-6-methoxypyridin-3-yl)quinolin-4-yl)-N-methyloxazole-5-carboxamide], for which testing at 0.001 µM against PI3Kα (Table 3) gave an inhibition of 74%. Besides, the IC50 in the test on MCF-7 cells (Table 3) amounted to 0.39 ± 0.08 µM; in the test on HCT-116 cells (Table 3, 72 h), 0.15 ± 0.04 µM.

In the case of `COc1ccc(CCNC(=O)c2cnc(-c3ccnc4ccc(-c5cnc(OC)c(NS(=O)(=O)c6ccc(F)cc6F)c5)cc34)o2)cc1` [22k, 2-(6-(5-((2,4-difluorophenyl)sulfonamido)-6-methoxypyridin-3-yl)quinolin-4-yl)-N-(4-methoxyphenethyl)oxazole-5-carboxamide], 0.001 µM produced 22% inhibition at PI3Kα (Table 3). The concentration for half-maximal inhibition (IC50) in the test on MCF-7 cells (Table 3) is above 1 µM; in the test on HCT-116 cells (Table 3, 72 h), above 1 µM.

Take `COc1ncc(-c2ccc3c(c2)sc2c(OCCN(C)C)ncnc23)cc1NS(=O)(=O)c1ccc(F)cc1F` [11k, N-(5-(4-(2-(dimethylamino)ethoxy)benzo[4,5]thieno[3,2-d]pyrimidin-7-yl)-2-methoxypyridin-3-yl)-2,4-difluorobenzenesulfonamide]: at PI3Kα (Table 1), at 0.001 µM the inhibition was 13%. Moreover, the IC50 came out at 0.69 ± 0.11 µM in the test on MCF-7 cells (Table 1) and 0.25 ± 0.08 µM in the test on HCT-116 cells (Table 1, 72 h).

In turn, `COc1ncc(-c2ccc3nccc(-c4ncc(C(=O)NC5CCCCC5)o4)c3c2)cc1NS(=O)(=O)c1ccc(F)cc1F` [22j, N-cyclohexyl-2-(6-(5-((2,4-difluorophenyl)sulfonamido)-6-methoxypyridin-3-yl)quinolin-4-yl)oxazole-5-carboxamide] gave an inhibition at 0.001 µM against PI3Kα (Table 3) of 18%. Also, the half-inhibitory concentration (IC50) with MCF-7 cells (Table 3) is above 1 µM; in the test on HCT-116 cells (Table 3, 72 h), above 1 µM.

In turn, `COc1ncc(-c2ccc3c(c2)sc2c(NC4CC4)ncnc23)cc1NS(=O)(=O)c1ccc(F)cc1F` [11d, N-(5-(4-(cyclopropylamino)benzo[4,5]thieno[3,2-d]pyrimidin-7-yl)-2-methoxypyridin-3-yl)-2,4-difluorobenzenesulfonamide] came in with an inhibition at 0.001 µM at PI3Kα (Table 1) of 40%. The concentration for half-maximal inhibition (IC50) in the test with MCF-7 cells (Table 1) came to 0.51 ± 0.11 µM; in the test on HCT-116 cells (Table 1, 72 h) it was 0.19 ± 0.12 µM.

Consider `COc1ncc(-c2cnc3ncnc(N4CCOCC4)c3c2)cc1NS(=O)(=O)c1ccc(F)cc1F` [17e, N-(2-methoxy-5-(4-morpholinopyrido[2,3-d]pyrimidin-6-yl)pyridin-3-yl)2,4-difluorobenzenesulfonamide], for which, on PI3Kα (Table 2), at 0.001 µM the inhibition was 36%. Further, the 50% inhibitory concentration (IC50) in the test on MCF-7 cells (Table 2) was found to be 0.92 ± 0.41 µM; with HCT-116 cells (Table 2, 72 h), 0.64 ± 0.2 µM.

Molecule `COc1ncc(-c2ccc3c(c2)sc2c(NCCN(C)C)ncnc23)cc1NS(=O)(=O)c1ccc(F)cc1F` [11h, N-(5-(4-((2-(dimethylamino)ethyl)amino)benzo[4,5]thieno[3,2-d]pyrimidin-7-yl)-2-methoxypyridin-3-yl)-2,4-difluorobenzenesulfonamide] came in with an inhibition at 0.001 µM against PI3Kα (Table 1) of 12%. The 50% inhibitory concentration (IC50) amounted to 0.7 ± 0.21 µM in the test with MCF-7 cells (Table 1) and 0.56 ± 0.1 µM with HCT-116 cells (Table 1, 72 h).

`COc1ncc(-c2ccc3c(c2)sc2c(NCCO)ncnc23)cc1NS(=O)(=O)c1ccc(F)cc1F` [11c, N-(5-(4-((2-hydroxyethyl)amino)benzo[4,5]thieno[3,2-d]pyrimidin-7-yl)-2-methoxypyridin-3-yl) -2,4-difluoro-benzenesulfonamide] displayed an inhibition at 0.001 µM against PI3Kα (Table 1) of 29%. Moreover, the IC50 with MCF-7 cells (Table 1) came out at 0.85 ± 0.37 µM; in the test with HCT-116 cells (Table 1, 72 h), 0.59 ± 0.18 µM.

For `COc1ncc(-c2ccc3c(c2)sc2c(NC(C)C)ncnc23)cc1NS(=O)(=O)c1ccc(F)cc1F` [11g, N-(5-(4-(isopropylamino)benzo[4,5]thieno[3,2-d]pyrimidin-7-yl)-2-methoxypyridin-3-yl)-2,4-difluorobenzenesulfonamide], at 0.001 µM the inhibition against PI3Kα (Table 1) was 44%. The IC50 with MCF-7 cells (Table 1) was determined as 0.53 ± 0.16 µM; in the test with HCT-116 cells (Table 1, 72 h), 0.22 ± 0.08 µM.

Molecule `COc1ncc(-c2ccc3nccc(-c4ncc(C(=O)NCCc5ccc(Cl)cc5)o4)c3c2)cc1NS(=O)(=O)c1ccc(F)cc1F` [22l, N-(4-chlorophenethyl)-2-(6-(5-((2,4-difluorophenyl)sulfonamido)-6-methoxypyridin-3-yl)quinolin-4-yl)oxazole-5-carboxamide] yielded an inhibition at 0.001 µM at PI3Kα (Table 3) of 15%. Moreover, the concentration for half-maximal inhibition (IC50) in the test with MCF-7 cells (Table 3) was above 1 µM; in the test on HCT-116 cells (Table 3, 72 h) it was above 1 µM.

For the molecule `COc1ncc(-c2cnc3ncnc(NCC4CC4)c3c2)cc1NS(=O)(=O)c1ccc(F)cc1F` [17l, N-(5-(4-((cyclopropylmethyl)amino)pyrido[2,3-d]pyrimidin-6-yl)-2-methoxypyridin-3-yl)-2,4-difluorobenzenesulfonamide], the inhibition at 0.001 µM at PI3Kα (Table 2) is 25%. Moreover, the half-inhibitory concentration (IC50) with MCF-7 cells (Table 2) was found to be 0.63 ± 0.12 µM; with HCT-116 cells (Table 2, 72 h) it was 0.47 ± 0.17 µM.

Molecule `COc1ncc(-c2ccc3nccc(-c4ncc(C(=O)NCC5CC5)o4)c3c2)cc1NS(=O)(=O)c1ccc(F)cc1F` [22h, N-(cyclopropylmethyl)-2-(6-(5-((2,4-difluorophenyl)sulfonamido)-6-methoxypyridin-3-yl)quinolin-4-yl)oxazole-5-carboxamide] yielded an inhibition at 0.001 µM against PI3Kα (Table 3) of 78%. The IC50 on PI3Kα turned out to be 0.37 nM; with MCF-7 cells (Table 3), 0.35 ± 0.11 µM; in the test on HCT-116 cells (Table 3, 72 h), 0.06 ± 0.01 µM.

Molecule `COc1ncc(-c2cnc3ncnc(NCCN4CCOCC4)c3c2)cc1NS(=O)(=O)c1ccc(F)cc1F` [17g, N-(2-methoxy-5-(4-((2-morpholinoethyl)amino)pyrido[2,3-d]pyrimidin-6-yl)pyridin-3-yl) -2,4-difluorobenzenesulfonamide] came in with an inhibition at 0.001 µM against PI3Kα (Table 2) of 11%. The IC50 in the test on MCF-7 cells (Table 2) was above 1 µM; in the test with HCT-116 cells (Table 2, 72 h), above 1 µM.

Take `COc1ncc(-c2ccc3c(c2)sc2c(NCCN)ncnc23)cc1NS(=O)(=O)c1ccc(F)cc1F` [11f, N-(5-(4-((2-aminoethyl)amino)benzo[4,5]thieno[3,2-d]pyrimidin-7-yl)-2-methoxypyridin-3-yl)-2,4-difluorobenzenesulfonamide]: on PI3Kα (Table 1), the inhibition at 0.001 µM is 10%. For the same molecule, the half-maximal inhibitory concentration (IC50) came to 0.69 ± 0.25 µM with MCF-7 cells (Table 1) and 0.77 ± 0.21 µM in the test on HCT-116 cells (Table 1, 72 h).

For the molecule `COCCCNC(=O)c1cnc(-c2ccnc3ccc(-c4cnc(OC)c(NS(=O)(=O)c5ccc(F)cc5F)c4)cc23)o1` [22f, 2-(6-(5-((2,4-difluorophenyl)sulfonamido)-6-methoxypyridin-3-yl)quinolin-4-yl)-N-(3-methoxypropyl)oxazole-5-carboxamide], the inhibition at 0.001 µM on PI3Kα (Table 3) was 78%. Also, the IC50 against PI3Kα turned out to be 0.38 nM; with MCF-7 cells (Table 3) it was 0.29 ± 0.1 µM; in the test with HCT-116 cells (Table 3, 72 h), 0.06 ± 0.02 µM.
